What was measured:
[1] = test system: pERK1/2; assay: Immunoblot with densitometric quantification; type: cell-based, human; conditions: DU145, after 1 hour
Procedure: (§1) Protein concentration was determined using the BCA Protein Assay (Pierce), and 20-50 μg of lysate were separated in a 4-12% SDS-PAGE gel. After transfer, membranes were blocked for 15-30 min at room temperature in 5% BSA (Sigma) in Tris-buffered saline containing 0.1% Tween-20. Primary antibody was incubated for either 1.5 hours at room temperature or overnight at 4° C. Secondary antibody was incubated for 30-45 min at room temperature, and proteins were visualized with West Pico Stable (Pierce). All antibodies were used at 1:1000 dilution unless otherwise stated. pT308AKT, AKT, pT180/Y182, pT183/Y185 P38MAPK, pP38MAPK, pT202/Y204 pERK1/2, ERK1, pT183/Y185, pJNK1/2, JNK1, pT71ATF2, pT581MSK1, pT14 Cdc2, Cdc2, pT68Chk2 (cell signaling), pT334MAPKAPK, pS82HSP27 (Cell Signaling Technology, Danvers, Mass.), α-tubulin (Biomarkers, 1:50,000), Cyclin B1 (Santa Cruz Biotechnologies) and horseradish peroxidase-conjugated anti-rabbit IgG and anti-mouse IgG (1:5,000, Pierce).
(§2) Densitometric quantifications were carried out using ImageJ software (NIMH).
(§3) To investigate the signaling mechanisms elicited by strigolactone analogs in cancer cells, MDA-MB-231, DU145 and HCT116 cells were treated with strigolactone analogs for 1, 4 or 8 hours and lysates were analyzed by immuno-blotting. The family of MAPK enzymes plays a pivotal role in cell growth, survival and cellular stress responses. The best characterized MAPKs fall into three families: (i) the mitogen activated extracellular signal regulated kinases (ERK1/2) which are activated in response to positive proliferation signals, (ii) c-Jun amino (N)-terminal kinases (JNK1/2/3) and (iii) p38 isoforms (p38α, β, γ, δ), all are activated by environmental stress stimuli such as DNA damage, UV irradiation and inflammatory cytokines.

[2] = test system: JNK1/2 phosphorylation; assay: Immunoblot with densitometric quantification; type: cell-based, human
Procedure: as §1, §2, §3

[3] = test system: Arabidopsis thaliana wild type root tips; assay: Root-tip structure and cellular morphology; type: in vivo; conditions: WT seedlings
Procedure: Seeds of homozygous lines of Arabidopsis thaliana wild type (WT; Columbia; Col-0) and max2-1 mutant (http://abrc.osu.edu/) were surface-sterilized and germinated on 1/2 Murashige and Skoog (MS) plates supplemented with 1% sucrose and solidified with 0.7% agar. Plates were incubated vertically in the dark at 4° C. for two days to synchronize germination. Three days after germination, seedlings were gently transferred using forceps to 1/2 MS plates containing various concentrations of GR-24 as a mixture of four diastereomers: (±)-GR-24 and (±)-2′-epi-GR-24. The root tip of the transferred seedling was marked on the plates. The plates remained unsealed to prevent accumulation of gases (e.g., ethylene), and were positioned in an upright 45° position, and incubated at 22° C. with a light intensity of […] m-2 s-1 provided by white fluorescent tubes and under a photoperiod of 16 hours exposure to light/8 hours in the dark for 6-12 days. […] GR-24, ST-357 and ST-362 were initially dissolved in acetone to give a 4.5 mM, 10 μM and 10 μM solutions, respectively, which were then further diluted with double-distilled sterile water (DDW). […] Where differences were recorded between non-treated and acetone controls, the comparison was made between GR-24, ST-357 and ST-362-treated and acetone-treated roots. […]

Compound | pERK1/2 levels reduction [1] [fold] | JNK1/2 phosphorylation increase ([2]; DU145, 4 hours) [fold] | Decrease of JNK1/2 phosphorylation from the 4 hours level ([2]; DU145, 8 hours) [%] | Root tip morphology ([3]; 13.5 μM exogenously supplied) | Starch granules in the columella cells ([3]; 27 μM)
CC1=CC(O/C=C2\Cc3c(n(C)c4cc(-c5cccs5)ccc34)C2=O)OC1=O (racemic) [MEB-55, (±) 2E-4-methyl-2-(4-methyl-5-oxo-2,5-dihydrofuran-2-yloxymethylene)-6-thiophen-2-yl-1,4-dihydro-2H-cyclopenta[b]indol-3-one] | 4 | 15 | 50 | – | –
CC1=C[C@H](O/C=C2/C(=O)O[C@@H]3c4ccccc4C[C@H]23)OC1=O (relative stereo) [GR-24, (3aR*,8bS*,E)-3-(((R*)-4-methyl-5-oxo-2,5-dihydrofuran-2-yloxy)methylene)-3,3a,4,8b-tetrahydro-2H-indeno[1,2-b]furan-2-one] | – | – | – | deformation of the root tips | abolished the starch granules

Source: patent US10208007B2, “Use of strigolactones and strigolactone analogs for treating proliferative conditions” (The State of Israel, Ministry of Agriculture & Rural …, priority 2011, dated 2019)
